Results as given in patent US11333660B2, “Analytical process for predicting the therapeutic effect of BH3 mimetics” (MEDIZINISCHE HOCHSCHULE HANNOVER, priority 2017, dated 2022).

Legend:
[1] = system: CD19+ lymphoma cells in PBMC of a mantle-cell lymphoma patient; assay: TMRE FACS on live CD19+ cells of PBMC from a mantle-cell lymphoma patient; type: cell-based, human; details: 3 h; for effect of inducing MOMP (reduced TMRE fluorescence in CD19+ cells): 1 μM, FIG. 7; for % (MeanFL relative to negative control) / MeanFL (mean TMRE fluorescence for the live CD19+ cells): CD19 gate, BH3 mimetics 1000 nM
Method: From a blood sample that was drawn from a patient diagnosed to have mantle-cell lymphoma, PBMC were isolated by density gradient centrifugation and suspended in cell culture medium. No further separation of cells was done but all the PBMC were contained in each aliquot dispensed from the isolated PBMC. […] For measurement, TMRE was added for measuring mitochondrial membrane potential, and for discriminating CD19+ lymphoma cells from normal CD19− cells, anti-CD19 antibody, APC-labelled, was added.
Measurement was by FACS after 3 h incubation under cell culture conditions subsequent to addition of the compounds to the aliquots of the cells.
The FACS results shown in FIG. 7 were taken in one measurement for each aliquot. […] This gating was applied to the measurement of the dye of the anti-CD19 antibody (CD19 APC) as shown in the center column (b, e, h, k, n, q) (R2). The measurement results for the viable lymphoma CD19+ cells in relation to MOMP are shown in the right hand column (c, f, i, l, o, r), with TMRE fluorescence indicating MOMP, i.e. lower TMRE fluorescence indicating increased MOMP.

[2] = system: human CD45+ cells (BV173) from spleen of ABT-199/DEX/DAS treated mouse; assay: TMRE FACS on human CD45+ spleen cells from the ABT-199/DEX/DAS treated mouse; type: cell-based; details: for TMRE fluorescence / MOMP (FIG. 10): ABT-199/DEX/DAS treated mouse CD45+ cells, 1 μM, 1 h; for TMRE fluorescence relative to 100% at beginning: ABT-199/DEX/DAS treated mouse spleen CD45+ cells, ABT-199 10 μM 1 h, FCCP 5 μM 15 min
Method: (§1) Cells were concurrently immunologically stained with APC-labelled anti-human CD45 antibody, to discriminate human leukemic from murine cells, and with TMRE. Measurement was by FACS, with gating for live human cells.
(§2) One of these BH3 mimetics was added to a separate aliquot of the cells suspended in cell culture medium to a final concentration of 1 μM. Concurrently, the cells were immunologically stained by adding a APC-labelled anti-human CD45 antibody to identify the tumour cells, and by adding TMRE. After 1 h, cells were analysed by FACS, with the gating set according to side scatter and forward scatter to select for live cells, and to select for CD45+ cells showing TMRE fluorescence.

[3] = system: human CD45+ cells (BV173) from spleen of untreated control mouse; assay: TMRE FACS on human CD45+ spleen cells from the control mouse; type: cell-based; details: for TMRE fluorescence / MOMP (FIG. 10): control mouse CD45+ cells, 1 μM, 1 h; for TMRE fluorescence relative to 100% at beginning: FCCP 5 μM 15 min
Method: as §1
as §2, with “One of these BH3 mimetics was added to a separate aliquot of the cells suspended in cell culture medium to a final concentration of 1 μM.” left out

[4] = system: PBMC from healthy donors; assay: TMRE FACS on PBMC from healthy volunteers; type: cell-based, human; details: ABT-199 1 μM, 3 h, healthy donors (n=6)
Method: (§3) PBMC or BM mononuclear cells were isolated by density gradient centrifugation from blood or bone marrow samples originating from patients who were newly diagnosed as ALL (n=12), from blood or bone marrow samples originating from CML patients in chronic phase (CML-CP, n=7), and from blood samples obtained from healthy volunteers (n=6). In accordance with the analytical process, PBMC or BM cells were incubated in cell culture medium with ABT-199 added to 1 μM for 3 h at 37° C. in a 5% CO2 atmosphere for cell culture conditions, followed by addition of TMRE to 50 nM and incubation for another 30 min, then analysed by FACS for fluorescence by TMRE.

[5] = system: in vitro cultivated BV173 cells; assay: TMRE FACS on in vitro cultivated BV173 cells; type: cell-based, human; details: in vitro cultured BV173, ABT-199 10 μM 1 h; for TMRE fluorescence relative to 100% at beginning: FCCP 5 μM 15 min
[6] = system: B-ALL cell line SUP-B15 (BCR-ABL-positive); assay: TMRE FACS measurement of MOMP in SUP-B15 cells; type: cell-based; details: 3 h
Method: As representatives for isolated PBMC, BM or LN mononuclear cells, the B-ALL cell lines SUP-B15, which expresses BCR-ABL (BCR-ABL-positive), and the BCR-ABL negative REH were used in the analytical process in suspension in cell culture medium RPMI1640. […] After incubation at 37° C. for 3 h, TMRE was added to a final concentration of 50 nM and the aliquots were incubated for further 15 min at 37° C., in a 5% CO2 atmosphere each time.
(§4) As a positive control, FCCP was added to one aliquot of the cell suspension to 5 μM final concentration. TMRE fluorescence was measured by FACS after 30 min incubation after addition of TMRE.

[7] = system: PBMC or BM mononuclear cells from CML patients in chronic phase; assay: TMRE FACS on PBMC or BM cells from CML-CP patients; type: cell-based, human; details: ABT-199 1 μM, 3 h, CML-CP samples (n=7)
Method: as §3

[8] = system: PBMC; assay: analytical process: TMRE fluorescence by FACS on PBMC aliquots (FIG. 1b); type: cell-based
Method: In this analysis incubation of PBMC aliquots in cell culture medium with the pharmaceutical compound, negative control or positive control was for 30 min, incubation after subsequent addition of fluorescent dye TMRE was for 10 min, both at 37° C., 5% CO2 atmosphere as cell culture conditions.

[9] = system: SUP-B15 cells; assay: propidium iodide (PI) staining of SUP-B15 cells; type: cell-based; details: 1 μM, 24 h process
Method: as §4
For comparison, apoptosis was measured by propidium iodide (PI) staining, the entire process having a duration of 24 h.

[10] = system: PBMC from a CLL patient; assay: TMRE FACS on PBMC from a CLL patient; type: cell-based, human; details: 3 h, ABT-199 1 μM, FCCP 5 μM, mock MFI 121
Method: (§5) PBMC were isolated by density gradient centrifugation using Biocoll from the heparinized blood sample of a patient diagnosed to have CLL (ABT-199, Venetoclax, is approved for treatment of CLL with 17p-deletion). As a comparison, PBMC from a healthy donor were isolated. PBMC were suspended in RPMI1640 cell culture medium and transferred as aliquots into separate tubes, to which ABT-199 was added to a final concentration of 1 μM and incubated at 37° C. for 3 h in a 5% CO2 atmosphere. Subsequently, TMRE was added to 50 nM and aliquots were further incubated for 30 min, then analysed by FACS according to the invention. As a negative control (mock), physiological saline was added, as a positive control FCCP to 5 μM (FCCP).

[11] = system: BCR-ABL negative REH cells; assay: TMRE FACS measurement of MOMP in REH cells; type: cell-based; details: ABT-199 10 nM, 3 h
Method: As representatives for isolated PBMC, BM or LN mononuclear cells, the B-ALL cell lines SUP-B15, which expresses BCR-ABL (BCR-ABL-positive), and the BCR-ABL negative REH were used in the analytical process in suspension in cell culture medium RPMI1640. As a positive control for MOMP, FCCP was added to 5 μM to one aliquot, as a negative control an aliquot of the suspended cells was used with addition of the same volume of physiological saline, and ABT-199 was added to 10 nM final concentration. After incubation at 37° C. for 3 h, TMRE was added to a final concentration of 50 nM and the aliquots were incubated for further 15 min at 37° C., in a 5% CO2 atmosphere each time.

[12] = system: PBMC from a healthy donor; assay: TMRE FACS on PBMC from a healthy donor; type: cell-based, human; details: 3 h, ABT-199 1 μM, FCCP 5 μM, mock MFI 232
Method: as §5

[13] = system: PBMC or BM mononuclear cells from ALL patients; assay: TMRE FACS on PBMC or BM cells from ALL patients; type: cell-based, human; details: ABT-199 1 μM, 3 h, ALL samples (n=12)
Method: as §3

[14] = system: blood cells obtained from a CLL patient; details: 6 h after contact in vitro; cited from earlier work
[15] = CD19+ cells, BH3 mimetics 1 μM, FCCP 5 μM, in comparison to the negative control
[16] = control mouse spleen CD45+ cells, ABT-199 10 μM 1 h

SMILES	effect of inducing MOMP (reduced TMRE fluorescence in CD19+ cells) [1]	mean TMRE fluorescence relative to negative control [1, 15] [%]	% (MeanFL relative to negative control) ([1]; FCCP 5 μM) [%]	MeanFL (mean TMRE fluorescence for the live CD19+ cells) ([1]; FCCP 5 μM)	TMRE fluorescence / MOMP (FIG. 10) [2]	TMRE fluorescence / MOMP (FIG. 10) [3]	TMRE fluorescence relative to 100% at beginning [5]	TMRE fluorescence relative to 100% at beginning [2]	MFI (TMRE) [10]	MFI (TMRE) [12]	TMRE fluorescence relative to 100% at beginning [3, 16]	further results
Cc1c(-c2ccc(N3CCc4cccc(C(=O)Nc5nc6ccccc6s5)c4C3)nc2C(=O)O)cnn1CC12CC3CC(CC(C3)C1)C2 [A1331852]	less pronounced effect	29.1	29.1	203	strongly reduced TMRE fluorescence	strongly reduced TMRE fluorescence	–	–	–	–	–	–
CC1(C)CCC(CN2CCN(c3ccc(C(=O)NS(=O)(=O)c4ccc(NCC5CCOCC5)c([N+](=O)[O-])c4)c(Oc4cnc5[nH]ccc5c4)c3)CC2)=C(c2ccc(Cl)cc2)C1 [ABT-199]	effective in inducing MOMP	9.3	9.3	65	–	–	approx. 60%	no response	53	242	approx. 60%	induction of apoptosis (TMRE FACS) [4]: essentially no induction of apoptosis; proportion of cells with MOMP [5]: 40%; induction of apoptosis by the process of the invention (TMRE) ([6]; 1 μM): significant induction of apoptosis; reduction of MFI (TMRE) ([6]; ABT-199 10 nM, versus negative control): approx. 40%; induction of apoptosis (TMRE FACS) [7]: essentially no induction of apoptosis; FACS peak distribution of TMRE fluorescence ([8]; ABT-199 5 μM to 10 μM, 30 min incubation): the peak at the position of the positive control increasing with the concentration; induction of apoptosis by PI staining [9]: significant induction of apoptosis; MFI (TMRE) in comparison to the negative control [11]: essentially remains unaffected; induction of apoptosis (TMRE FACS) [13]: strong induction of apoptosis; proportion of cells with MOMP [3, 16]: 40%
CN(C)CC[C@H](CSc1ccccc1)Nc1ccc(S(=O)(=O)NC(=O)c2ccc(N3CCN(Cc4ccccc4-c4ccc(Cl)cc4)CC3)cc2)cc1[N+](=O)[O-] [ABT-737]	effective in inducing MOMP	9.9	9.9	69	reduced TMRE fluorescence	reduced TMRE fluorescence	–	–	–	–	–	–
N#CC(C#N)=NNc1ccc(OC(F)(F)F)cc1 [FCCP, carbonyl cyanide-4-(trifluoro-methoxy)phenylhydrazone]	–	15.6	15.6	109	–	–	~20%	~20%	60	106	~20%	mean fluorescence intensity (MFI) of TMRE ([8]; incubation 30 min, TMRE 10 min, 37° C., negative control MFI 612): 95
CN1CC[C@H](c2c(O)cc(O)c3c(=O)cc(-c4ccccc4Cl)oc23)[C@H](O)C1 [Flavopiridol]	–	–	–	–	–	–	–	–	–	–	–	mitochondrial membrane depolarization (JC-1) [14]: mitochondrial membrane depolarization was detected
Cc1c(-c2c(-c3ccc(F)o3)sc3ncnc(O[C@H](Cc4ccccc4OCc4ccnn4CC(F)(F)F)C(=O)O)c23)ccc(OCCN2CCN(C)CC2)c1Cl [S63845]	less pronounced effect	–	56.7	396	high TMRE fluorescence	high TMRE fluorescence	–	–	–	–	–	proportion of cells without MOMP [1, 15]: 56.7%
